Results published in US11661404B2, “Prodrug compounds activated by AKR1C3 and their use for treating hyperproliferative disorders” (priority 2018, dated 2023).
Where two headings read alike, the source gives them in different places.

What was measured:
[1] = test system: wild-type HCT116 colon cancer cells; assay: Anti-proliferative IC50 assay (SRB), wild-type HCT116; type: cell-based, human
From the text: (§1) The cellular cytotoxicity of compounds of the invention resulting from AKR1C3-dependent metabolism of the compounds can readily be observed in anti-proliferative IC50 testing in isogenic cell lines that have been engineered to over-express human AKR1C3, relative to their wild-type counterparts that have been selected for their comparatively low levels of endogenous AKR1C3 expression (by Western blot analysis). The direct role of AKR1C3 in metabolism and cytotoxicity of the compounds is further supported for selected examples by repeat anti-proliferative experiments in the presence of a potent and selective small molecule inhibitor of AKR1C3, SN34037 (Flanagan et al., Bioorganic & Medicinal Chemistry (2014), 22(3), 967-977).
(§2) Four hundred cells were seeded in a volume of 100 μL in each well of a 96-well plate. The cells were left in a humidified incubator (37° C., 5% CO2) for 2 hours in order to enable attachment to the surface of the wells prior to compound addition. All compounds were prepared as stocks in DMSO and stored at −80° C. Frozen stocks of compounds were thawed immediately prior to addition to cells. Working solutions of each compound were made in α-MEM+5% FBS (v/v) at 3 times the required final concentration for the top well. The final concentration of DMSO in the α-MEM solution was ensured to not exceed 1% of the total volume. 50 μL of the working solution was added to the top wells (in duplicates) and gently mixed. The solubility of some compounds precluded the working solution in α-MEM to be 3 times the desired top well concentration. […] A 3-fold serial dilution was carried out along the plate starting from the top well. The first column of wells on the plate served as blanks (containing α-MEM+FBS) and the second column served as control wells (containing cells with no compound added). Following compound addition, the plates were incubated for 4 hours in a humidified incubator (37° C., 5% CO2).
(§3) Following the 4 hour compound exposure, the 96-well plates were washed three times by aspirating media with an Immuno Washer (Nunc) and each well replaced with 150 μL of α-MEM+5% (v/v) FBS+1% (v/v) P/S. The plates were left in a humidified incubator (37° C., 5% CO2) for 5 days to enable cell growth. The cells in 96-well plates were fixed 5 days after compound exposure by adding 50 μL of a 40% (w/v) trichloroacetic acid (TCA) solution so as to obtain a final TCA concentration of 10% in each well. The plates were left in the refrigerator (4° C.) for 1 hour and subsequently rinsed 3 times in tap water. Any excess water was left to drain and the cells were stained with 50 μL of 0.4% (w/v) sulforhodamine B (SRB). The plates with the SRB stain were left in the dark for 30 minutes. Excess stain was removed from the wells by rinsing the plates 4 times in water containing 1% (v/v) acetic acid. The stain was solubilised by adding 100 μL of 10 mM unbuffered Tris (pH 10.5) to each well and the plates were left in a shaker in a dark environment at room temperature for at least 1 hour. The absorbance values of the wells were determined by an ELx 808 Absorbance Microplate Reader (Bio-Tek Instruments, Winooski, Vt., USA), with the wavelength of the measurement filter set at 490 nm and a reference filter set at 450 nm. The absorbance of the reference filter was subtracted from the measurement filter to obtain a final absorbance of λ490-450 nm. The absorbance data was analysed and IC50 values determined by the KC4 microplate data analysis software (KC4™ V3.4, Bio-Tek).
(§4) Anti-proliferative IC50 assays were repeated as described above including the addition of 3 μM SN34037, a selective and potent small molecule inhibitor of AKR1C3.

[2] = test system: HCT116 colon cancer cells engineered to over-express AKR1C3; assay: Anti-proliferative IC50 assay (SRB), HCT116 over-expressing AKR1C3; type: cell-based, human; details: for IC50 Ratio WT:AKR1C3: HCT116-WT vs HCT116-AKR1C3
From the text: as §1, §2, §3, §4

[3] = test system: wild-type H460 lung cancer cells; assay: Anti-proliferative IC50 assay, wild-type H460; type: cell-based, human; details: for IC50: Homo sapiens
Protocol: as §2, §3, §4
Materials and methods used are as described for Example 9.

[4] = test system: wild-type SNU398 hepatocellular carcinoma cells; assay: Anti-proliferative IC50 assay, wild-type SNU398; type: cell-based; details: Homo sapiens
Protocol: as §2, §3, §4
(§5) Materials and methods used are as described for Example 9. […] This is a surprising finding and considerably greater than the approximately 77-fold, 270-fold and 400-fold increase in sensitivity observed for PR-104A, SN33540 and SN34454, respectively. In all cases, this increase in cytotoxicity resulting from expression of AKR1C3 can be substantially reversed by addition of an AKR1C3 inhibitor (SN34037), directly implicating metabolism of the prodrugs by AKR1C3 in the observed increase in cytotoxicity. As an important control, introduction of SN34037 had no anti-proliferative effects in wild-type SNU398 cells treated with compounds of the invention.

[5] = test system: SNU398 hepatocellular carcinoma cells engineered to over-express AKR1C3; assay: Anti-proliferative IC50 assay, SNU398 over-expressing AKR1C3; type: cell-based, human; details: for IC50: Homo sapiens
Protocol: as §2, §3, §4, §5

[6] = Homo sapiens, HCT-116, read-out: HCT116-WT IC50
[7] = read-out: HCT116-WT + AKR1C3 Inhibitor IC50, with 3 μM SN34037
[8] = Homo sapiens, HCT-116, read-out: HCT116-AKR1C3 IC50
[9] = read-out: HCT116-AKR1C3 + AKR1C3 Inhibitor IC50, with 3 μM SN34037
[10] = NCI-H460, read-out: H460-WT +AKR1C3 Inhibitor Anti-proliferative IC50
[11] = NCI-H460, read-out: H460-WT Anti-proliferative IC50
[12] = SNU-398, read-out: SNU398-WT +AKR1C3 Inhibitor Anti-proliferative IC50
[13] = SNU-398, read-out: SNU398-WT Anti-proliferative IC50
[14] = SNU-398, read-out: SNU398-AKR1C3 +AKR1C3 Inhibitor Anti-proliferative IC50
[15] = SNU-398, read-out: SNU398-AKR1C3 Anti-proliferative IC50

Row | Structure (SMILES) | IC50 [1, 6] | IC50 [1, 7] | IC50 Ratio WT:AKR1C3 [2] | IC50 [2, 8] | IC50 [2, 9] | IC50 [3, 10] | IC50 [3, 11] | IC50 [4, 12] | IC50 [4, 13] | IC50 [5, 14] | IC50 [5, 15] | more cytotoxic in H460 cells than SN34454 [3] | more cytotoxic in H460 cells than SN33540 [3] | more cytotoxic in H460 cells than SN34118 [3] | increase in sensitivity when SNU398 cells express AKR1C3 ([5]; SNU398-WT vs SNU398-AKR1C3)
1 | O=[N+]([O-])c1ccc(N(CCBr)CCBr)c(S(=O)(=O)N2CCN(CC(O)CO)CC2)c1 (stereo not shown) [Compound 566, 3-(4-((2-(bis(2-bromoethyl)amino)-5-nitrophenyl)sulfonyl)piperazin-1-yl)propane-1,2-diol] | 3.34 µM | 3.93 µM | 3340 | 0.001 µM | 1.72 µM | 4.03 µM | 0.004 µM | 10.2 µM | 9.64 µM | 6.41 µM | 0.011 µM | – | – | – | –
2 | CN1CCN(S(=O)(=O)c2cc([N+](=O)[O-])ccc2N(CCBr)CCOS(C)(=O)=O)CC1 [Compound 602, 2-((2-bromoethyl)(2-((4-methylpiperazin-1-yl)sulfonyl)-4-nitrophenyl)amino)ethyl methanesulfonate] | 4.26 µM | 4.33 µM | 4260 | 0.001 µM | 1.78 µM | 4.19 µM | 0.004 µM | 6.65 µM | 6.74 µM | 2.66 µM | 0.003 µM | 102 fold | – | – | –
3 | CS(=O)(=O)OCCN(CCBr)c1ccc([N+](=O)[O-])cc1S(=O)(=O)N1CCN(CC(O)CO)CC1 (stereo not shown) [Compound 605, 2-((2-bromoethyl)(2-((4-(2,3-dihydroxypropyl)piperazin-1-yl)sulfonyl)-4-nitrophenyl)amino)ethyl methanesulfonate] | 6.18 µM | 6.9 µM | 687 | 0.009 µM | 3.54 µM | 7.8 µM | 0.025 µM | 14.4 µM | 16.2 µM | 10.5 µM | 0.028 µM | – | – | – | –
4 | CN1CCN(S(=O)(=O)c2cc([N+](=O)[O-])ccc2N(CCOS(C)(=O)=O)CCOS(C)(=O)=O)CC1 [Compound 641, ((2-((4-methylpiperazin-1-yl)sulfonyl)-4-nitrophenyl)azanediyl)bis(ethane-2,1-diyl) dimethanesulfonate] | 5.91 µM | 6.4 µM | 2955 | 0.002 µM | 3.11 µM | 5.86 µM | 0.003 µM | 15.4 µM | 10.3 µM | 5.07 µM | 0.004 µM | 135 fold | 179 fold | 520 fold | –
5 | CS(=O)(=O)OCCN(CCBr)c1c(C(=O)NCCO)cc([N+](=O)[O-])cc1[N+](=O)[O-] [PR-104A, 2-((2-bromoethyl)(2-((2-hydroxyethyl)-carbamoyl)-4,6-dinitrophenyl)amino)ethyl methanesulfonate, reference compound] | 55.8 µM | 70.7 µM | 50 | 1.12 µM | 41.8 µM | 50 µM | 2.7 µM | 92.4 µM | 89.8 µM | 89.9 µM | 1.16 µM | – | – | – | –
6 | CN1CCN(C(=O)c2cc([N+](=O)[O-])ccc2N(CCBr)CCBr)CC1 [SN34118, reference compound] | 38.2 µM | 29.3 µM | 98 | 0.389 µM | 23.9 µM | 28.9 µM | 1.56 µM | – | – | – | – | – | – | – | –
7 | CN1CCN(C(=O)c2cc([N+](=O)[O-])ccc2N(CCBr)CCOS(C)(=O)=O)CC1 [SN34454, reference compound] | – | – | – | – | – | 46 µM | 0.406 µM | 48.9 µM | 60.5 µM | 62.7 µM | 0.15 µM | – | – | – | ~400 fold
